From patent publication US10100284B2, “Method for inducing differentiation of pluripotent stem cells into endodermal cells” (TOAGOSEI CO., LTD., priority 2013, dated 2018)
Where no end group is shown, it is not given here.

Experiments:
[1] = system: iPS cells (clone name: 201B2 or 201B7); test: AFP ELISA of iPS cell culture supernatant; format: cell-based, human; settings: peptide concentration in medium 6 μM; as culture time increased; FIG. 4
Method: (§1) The stem cell differentiation-inducing activity of the differentiation-inducing synthetic peptide (Sample 1) obtained in Example 1 was evaluated by quantifying changes over time in the expressed amounts (typically extracellular secretion) of AFP and ALB, which are proteins known as markers of differentiation into endodermal cells. It is known that AFP is expressed in cells that have differentiated into liver precursor cells among the endodermal cells, while ALB is expressed in cells that have differentiated sufficiently to function effectively as hepatocytes (that is, hepatocytes or hepatocyte-like cells). […]
200 μL of a substrate solution obtained by mixing 1 volume each of the accessory coloring reagent (A) and coloring reagent (B) was added per well, and left standing for 30 minutes in the dark. […] Absorbance A450 at 450 nm and absorbance A550 at 550 nm were then measured with a spectrophotometer in the reaction liquid in the wells.
(§2) Absorbance values A(450-550) were calculated by subtracting the absorbance A550 from the absorbance A450 obtained by the previous measurement (that is, absorbance A(450-550)=[…]) for each of the samples from the AFP evaluation test group and ALB evaluation test group. […]

[2] = system: iPS cells (clone name: 201B2 or 201B7); test: ALB ELISA of iPS cell culture supernatant; format: cell-based, human; settings: peptide concentration in medium 6 μM; as culture time increased; FIG. 4
Method: as §1
50 μL of the accessory Chromogen Substrate Solution (coloring reagent) was then added per well, and left standing for 15 minutes in the dark. […] Absorbance A450 at 450 nm and absorbance A550 at 550 nm were then measured with a spectrophotometer in the reaction liquid in the wells.
as §2

## LLLLLLVGLTAPAGKKRTLRKNDRKKR-CONH2 (LLLLLLVGLTAPAGKKRTLRKNDRKKR-NH2) [Sample 1]
[1]
  AFP level of the culture supernatant in comparison with peptide-free group with the same culture time: increased dramatically
[2]
  ALB level of the culture supernatant in comparison with peptide-free group with the same culture time: increased dramatically
